Each structure is given as a SMILES string. ≈ marks a conversion by molar mass, not a printed value. Where two headings read alike, the source gives them in different places. Some results are limits rather than exact numbers.

For test [1], the system named is Pseudomonas aerugenosa. Kind of test: MIC, broth two-fold serial dilution test, Pseudomonas aerugenosa (Psae). Format: cell-based. From the text:
(§1) The compounds identified with a prime (') were the non-iodo analogues of the invention compounds, i.e., the compounds of formula III or IV. All data are reported in ppm of active ingredient required to control the respective organism. The indication "No In." means that the compound had no inhibitory activity at 500 ppm which was the maximum tested, and so if the "No In." compound were active, the minimum inhibitory concentration would be above 500 ppm. The comparative tests were not run side-by-side, but were run on different days using the same methods. […] A minimum inhibitory concentration (MIC) value is obtained using a broth, two-fold serial dilution test performed as follows: […] A volume of the stock solution is dispensed into culture media to give an initial starting test concentration of the compound of 500 ppm or 250 ppm. When the test is ready to be done, each vessel in the dilution series, except the first vessel, contains an equal volume of compound free broth. The first vessel contains twice the volume of broth with the starting concentration of test compound. One half of the broth from the first vessel is transferred to the second vessel. After being mixed, one half the resulting volume is removed from the second vessel and transferred to the third vessel. […] Each vessel is then inoculated with a cell suspension of the appropriate test organism. Bacteria are grown in broth and fungi on agar […] is grown in cooling tower media for a time and at a temperature appropriate to the species being tested. At the end of the growth period, the broth is vortexed to disperse the cells. In the case of fungi, the spores are harvested by pipetting water onto the slant and dislodging the spores with a sterile loop. The cell/spore suspension is standardized by controlling incubation time, temperature, and the volume of the diluent. The suspension is then used to inoculate the vessels containing the broth compound. The vessels are then incubated at the appropriate temperature. After the incubation, the vessels are examined for growth/no growth. The MIC is defined as the lowest concentration of compound that results in complete inhibition of growth of the test organism. BACTERIA: Pseudomonas fluorescens (Ps.fl), gram negative; Pseudomonas aerugenosa (Ps.ae), gram negative; Escherichia coli (E.c), gram negative; and Staphylococcus aureus (S.a), gram positive.

Test [2] deals with Escherichia coli. The experiment in a line: MIC, broth two-fold serial dilution test, Escherichia coli (Ecol). The format is cell-based.
Description: as §1

The test system of test [3] is Staphylococcus aureus. Kind of test: MIC, broth two-fold serial dilution test, Staphylococcus aureus (Saur). Format: cell-based.
Description: as §1

Test [4] deals with Aspergillus niger. The experiment in a line: MIC, broth two-fold serial dilution test, Aspergillus niger (Anig). Conditions: TSB. Format: cell-based.
Description: as §1, with “INDUSTRIAL FUNGI: Aspergillus niger (A.n); Aureobasidium pullulans (A.p)” for “BACTERIA: Pseudomonas fluorescens (Ps.fl), gram negative; Pseudomonas aerugenosa (Ps.ae), gram negative; Escherichia coli (E.c), gram negative; and Staphylococcus aureus (S.a), gram positive.”

Test [5] concerns Pseudoperonospora cubensis. The experiment in a line: whole plant or invertebrate. The format is in vivo. The conditions noted are these: Pseudoperonospora cubensis, in Cucumis sativus, 168 h; read-out: % Control CDM.
Test [6] concerns Piricularia oryzae. Kind of test: whole plant or invertebrate. The format is in vivo. The conditions noted are these: Pyricularia oryzae, read-out: % Control RB.
Test [7] has as its system Pellicularia filamentosa (f. sp. sasiki). Kind of test: whole plant or invertebrate. The conditions noted are these: 120 h; read-out: % Control RSB. Format: in vivo.
Test [8] deals with Phytophthora infestans. Kind of test: whole plant or invertebrate. The format is in vivo. Conditions: Phytophthora infestans, in Solanum lycopersicum, 96 h; for pest or weed control at 50 ppm: read-out: % Control TLB, secondary greenhouse test (Table 5), 50 ppm.
Test [9] relates to Erysiphe graminis (f. sp. tritici). The experiment in a line: whole plant or invertebrate. The format is in vivo. The conditions noted are these: Blumeria graminis; read-out: % Control WPM.
Test [10] concerns Puccinia recondita (f. sp. tritici Races PKB and PLD). Kind of test: whole plant or invertebrate. Format: in vivo. The conditions noted are these: Puccinia recondita, 240 h; read-out: % Control WLR.
[11] abbreviates: read-out: % Control TLB, greenhouse test (Table 4), 200 ppm.
The mark [12] stands for this setting: read-out: % Control TLB, secondary greenhouse test (Table 5), 200 ppm.

A word on the MIC: it is the lowest concentration that inhibits growth of the organism. Lower therefore signals greater potency. Turning to `C#CCN1C(=O)N(Cc2ccccc2)C(C)(C)C1=O` [Compound 14, 1-benzyl-3-(propyn-2-yl)-5,5-dimethylhydantoin, reference compound], the MIC in test [1] (M9G), in test [1] (TSB), in test [2] (M9G), in test [2] (TSB), in test [3] (M9G) and in test [3] (TSB) was > 500 µg/mL throughout. In test [4], the MIC is > 500 µg/mL.
In the case of `CC1C(=O)N(c2cc(Cl)cc(Cl)c2)C(=O)N1CC#CI` (stereo not drawn) [Compound 1], the MIC in [1] (M9G), in test [1] (TSB), in test [2] (M9G), in [2] (TSB), in [3] (M9G) and in test [3] (TSB) was > 500 µg/mL in each case. Also, the MIC in test [4] is 0.5 µg/mL (≈ 1.18 µM). Further, the pest or weed control at 200 ppm in test [5] was 90%; in test [6], 50%; in test [7], 75%; in test [8] (setting [11]), 0%; in test [8] (setting [12]), 95%; in test [10], 80%. Besides, the pest or weed control at 50 ppm in [6] worked out at 50%; in test [7] it was 50%; in test [8] it was 75%; in [9] it was 0%; in test [10], 50%.
As for `CC1(C)C(=O)N(Cc2ccccc2)C(=O)N1CC#CI` [Compound 8], the MIC came out at 32 µg/mL (≈ 83.7 µM) in test [1] (M9G); 125 µg/mL (≈ 327 µM) in test [1] (TSB); 64 µg/mL (≈ 167 µM) in test [2] (M9G); 125 µg/mL (≈ 327 µM) in [2] (TSB); 16 µg/mL (≈ 41.9 µM) in test [3] (M9G); 16 µg/mL (≈ 41.9 µM) in test [3] (TSB). For the same compound, the MIC in [4] was < 0.25 µg/mL. In addition, the pest or weed control at 50 ppm worked out at 50% in test [6]; 50% in test [7]; 50% in test [8]; 0% in [9]; 80% in [10]. For the same compound, the pest or weed control at 200 ppm was determined as 50% in test [6]; 75% in test [7]; 50% in test [8] (setting [12]); 50% in test [9]; 90% in [10].
For the compound `CCCCCCCCN1C(=O)N(CC#CI)C(C)(C)C1=O` [Compound 10, 1-(3-iodo-2-propynyl)-3-n-octyl-5,5-dimethylhydantoin], the MIC in test [1] (M9G) was 125 µg/mL (≈ 309 µM); in test [1] (TSB) it was > 500 µg/mL; in [2] (M9G) it was 250 µg/mL (≈ 618 µM); in [2] (TSB) it was > 500 µg/mL; in [3] (M9G), 2 µg/mL (≈ 4.95 µM); in test [3] (TSB), 4 µg/mL (≈ 9.89 µM). The compound also displayed an MIC in [4] of 4 µg/mL (≈ 9.89 µM).
With `C#CCN1C(=O)N(c2cc(Cl)cc(Cl)c2)C(=O)C1C` (stereo not drawn) [Compound 1', 1-(2-propynyl)-3-(3,5-dichlorophenyl)-5-methylhydantoin, reference compound], the MIC in test [1] (M9G), in [1] (TSB), in test [2] (M9G), in test [2] (TSB), in test [3] (M9G) and in [3] (TSB) was > 500 µg/mL each time. Also, the MIC in [4] was > 500 µg/mL.
Consider `CC1(C)C(=O)N(CC#CI)C(=O)N1Cc1ccccc1` [Compound 14], for which the MIC in test [1] (M9G) is > 500 µg/mL; in test [1] (TSB) it was > 500 µg/mL; in test [2] (M9G), 125 µg/mL (≈ 327 µM); in test [2] (TSB) it was 250 µg/mL (≈ 654 µM); in [3] (M9G) it was > 500 µg/mL; in test [3] (TSB), 64 µg/mL (≈ 167 µM). For the same compound, the MIC in test [4] was 4 µg/mL (≈ 10.5 µM).
As to `C#CCN1C(=O)N(CC#C)C(C)(C)C1=O` [Compound 11, 1,3-bis-(2-propynyl)-5,5-dimethylhydantoin, reference compound], the MIC in test [1] (M9G), in test [1] (TSB), in [2] (M9G), in test [2] (TSB), in test [3] (M9G) and in test [3] (TSB) was > 500 µg/mL in each case. Moreover, the MIC in [4] is > 500 µg/mL.
On to `O=C1CN(CC#CI)C(=O)N1c1cc(Cl)cc(Cl)c1` [Compound 7, 1-(3-iodo-2-propynyl)-3-(3,5-dichlorophenyl)hydantoin], for which the MIC in test [1] (M9G) was > 500 µg/mL; in test [1] (TSB), > 500 µg/mL; in test [2] (M9G), > 500 µg/mL; in test [2] (TSB), > 500 µg/mL; in [3] (M9G), 16 µg/mL (≈ 39.1 µM); in test [3] (TSB) it was 8 µg/mL (≈ 19.6 µM). In addition, the MIC in test [4] was 1 µg/mL (≈ 2.44 µM). Besides, the pest or weed control at 200 ppm was 50% in test [5]; 50% in test [6]; 50% in test [7]; 90% in [8] (setting [11]); 90% in [8] (setting [12]). Also, the pest or weed control at 50 ppm in test [6] was determined as 50%; in [8] it was 50%; in test [9], 0%; in [10] it was 50%.
Take `CCCCN1C(=O)N(CC#CI)C(C)(C)C1=O` [Compound 9, 1-(3-iodo-2-propynyl)-3-n-butyl-5,5-dimethylhydantoin]: the MIC in test [1] (M9G) was 64 µg/mL (≈ 184 µM); in test [1] (TSB) it was 500 µg/mL (≈ 1440 µM); in test [2] (M9G) it was 16 µg/mL (≈ 46 µM); in [2] (TSB), 500 µg/mL (≈ 1440 µM); in test [3] (M9G), 4 µg/mL (≈ 11.5 µM); in [3] (TSB) it was 16 µg/mL (≈ 46 µM). In test [4], the MIC was found to be 2 µg/mL (≈ 5.74 µM).
Take `C#CCN1C(=O)NC(C)(C)C1=O` [Compound 12, 3-(2-propynyl)-5,5-dimethylhydantoin, reference compound]: the MIC in test [1] (M9G), in test [1] (TSB), in test [2] (M9G), in test [2] (TSB), in test [3] (M9G) and in [3] (TSB) was > 500 µg/mL in each case. Further, the MIC in test [4] is > 500 µg/mL.
With `O=C1CNC(=O)N1CC#CI` [Compound 15, 3-(3-iodo-2-propynyl)-hydantoin], the MIC turned out to be 250 µg/mL (≈ 947 µM) in test [1] (M9G); 500 µg/mL (≈ 1890 µM) in test [1] (TSB); 64 µg/mL (≈ 242 µM) in test [2] (M9G); 64 µg/mL (≈ 242 µM) in test [2] (TSB); 64 µg/mL (≈ 242 µM) in test [3] (M9G); 125 µg/mL (≈ 473 µM) in test [3] (TSB). Further, the MIC in [4] was determined as 8 µg/mL (≈ 30.3 µM).
For `C#CCN1C(=O)N(Cc2ccccc2)C(=O)C1(C)C` [Compound 8, 3-benzyl-1-propargyl-5,5-dimethylhydantoin, reference compound], the MIC in test [1] (M9G), in [1] (TSB), in test [2] (M9G), in [2] (TSB), in [3] (M9G) and in [3] (TSB) was > 500 µg/mL throughout. For the same compound, the MIC in test [4] was > 500 µg/mL.

Source of the values: patent US5346913A, “N-iodopropargyl hydantoin compounds, compositions, preparation, and use as antimicrobial agents” (Rohm and Haas Company, priority 1992, dated 1994).
